Measured values taken from patent US9868773B2, “Peptide for treatment of type 2 diabetes mellitus and its complications” (DAPHOT ENTERPRISES LIMITED, priority 2014, dated 2018).
“Also recorded” adds a separate entry of the source. Marks after values point to notes of the source that are not given here.

How the values were obtained:
[1] = system: chemical experimental diabetes induced by a single injection of Streptozocin (STZ) and nicotinamide to male rats; assay: Determination of glucose in peripheral blood of rats with STZ/nicotinamide-induced experimental diabetes; assay type: in vivo, rat; conditions: fasted STZ/nicotinamide rats; daily for 80 days; Byetta and exenatide 4.5 ppb, D-peptide 6.0 ppb subcutaneously, Metformin 85.7 ppm intragastrically; vs control group
Method: (§1) In accordance with the experiment schedule, animals underwent induction of experimental diabetes mellitus using single injection of Streptozotocin (STZ) abdominally in the dose of 65 ppm previously diluted in citrate buffer (pH=6.5) on the day 0. All animals were injected abdominally with nicotinomide in the dose of 230 ppm (5% solution) 2 hours before it.
Glucose level measurement in peripheral blood of rats was conducted using the glucose meter OneTouch® and dipsticks OneTouch® by the glucose oxidase test. Rats were deprived of feed, but not water for a night before glucose level measurement. The measurement process was as follows: an animal with a required mark was removed from the cage, its tail was treated with bactericidal agent, a vein was punctured using a syringe needle, and the glucose meter with a dipstick was brought in place when a blood drop was effused. Obtained data was entered into the initial card.

[2] = system: chemical experimental diabetes induced by a single injection of Streptozocin (STZ) and nicotinamide to male rats; assay: Determination of glycosylated hemoglobin (HbA1c) in blood of diabetic rats; assay type: in vivo, rat; conditions: for Glycosylated hemoglobin, %: M ± m, 81st day of daily injection, Byetta and exenatide 4.5 ppb, D-peptide 6.0 ppb s.c., Metformin 85.7 ppm i.g., intact 4.2, control 15.6; for reduction of HbA1c concentration, therapy effect in intergroup comparison: vs control group, after 80-day therapy
Method: as §1
A sample of venous blood was taken to determine the glycosylated hemoglobin level of animals on the day of euthanasia. The following organs were also taken for pathomorphological study: sciatic nerve, part of mesentery artery, part of retina artery, part of gastrocnemius muscle and pancreatic gland.
Determination of glycosylated hemoglobin in venous blood was conducted using the kit of reagents “Diabetes Test, HbA1c” (“Phosphosorb” LLC, Russia) by the method of affinity chromatography of glycosylated and non-glycosylated hemoglobin fractions in rat blood hemolysate.
Blood samples for determination of glycosylated hemoglobin in hemolysate of animal red blood cells were taken from the tail vein of experimental animals on the 81st day of daily injection of test products.

[3] = system: rats with diabetic neuropathy; assay: Assessment of tactile allodynia (von Frey hairs) on rats with diabetic neuropathy; assay type: in vivo, rat; conditions: for effect on tactile allodynia manifestation in diabetic neuropathy: 60th-80th day of injection, vs control group; for mean value of paw withdrawal threshold, 60th day of products injection: Byetta and exenatide 4.5 ppb, D-peptide 6.0 ppb s.c., Metformin 85.7 ppm i.g. daily, control 2.77, intact 27.74; for mean value of paw withdrawal threshold, 70th day of products injection / mean value of paw withdrawal threshold, 80th day of products injection: same doses; for mean value of paw withdrawal threshold, 70th day of products injection: control 3.10, intact 26.94; for mean value of paw withdrawal threshold, 80th day of products injection: control 3.46, intact 27.74
Method: as §1
A rat was put into a plastic cage with a grating floor made of metal wire and left in this cage for 5 minutes to extinguish orientation response.
Threshold of each rat was initially determined on the left paw, and then on the right paw. A hair end touched the middle of the plantar surface on the paw with the force required for hair bending, and it was left in this position for 6-8 seconds. Positive response was recorded if the animal withdrew its paw abruptly during touching, or removal of a hair was followed by sharp paw bending.
Testing was started from application of a hair corresponding to the force of 3.630 g. Then stimuli (hairs) were used in the increasing and decreasing sequence. The hair with the least coarseness was used in case of positive response, while the hair with the largest coarseness was used in case of negative response. 4 more hairs were used according to the same principle after initial determination of sensitivity threshold.
Psychophysiological mean effective threshold of tactile responsiveness was calculated by the method described by Dixon.

[4] = system: mesenteric artery intima of rats; conditions: after 80-day injection; vs control group (FIG. 3)
Text: (§2) Nuclei were counterstained with hemalum.
(§3) 4.8. and image editor PhotoM 1.21.

sciatic nerve tissue = assay: Condition assessment of sciatic nerve tissue of diabetic rats (histology, morphometry); assay type: in vivo, rat; conditions: for pathomorphological condition of sciatic nerve tissue: histology after 80-day injection; for Nerve stem thickness, μm / Endoneurium connective tissue area, μm^2: sciatic nerve after 80-day injection; for Nerve stem thickness, μm: intact 340.5, control 203.3; for Endoneurium connective tissue area, μm^2: intact 2,596.3, control 3,962.5
Text: as §2, §3

gastrocnemius muscle = assay: Condition assessment of muscle tissue (gastrocnemius muscle) of diabetic rats; assay type: in vivo, rat; conditions: for Cross section area of fibers, μm^2: gastrocnemius muscle, M ± m, after 80-day injection, intact 1,450, control 551.1; for pathomorphological condition of gastrocnemius muscle tissue: histology after 80-day injection
Text: as §2, §3

[5] = system: rats with alcohol neuropathy; conditions: D-peptide 10 ppb, 100th day of daily injection; vs control group, p<0.05; 30% alcohol forced drinking
Method: Tactile allodynia was assessed prior to modeling of alcohol neuropathy on the 1st day of product injection, and on the 50th and 100th day of daily injection. Data are given as a mean threshold value of paw withdrawal (g) (M±m).
The allodynia test was performed on the 60th, 70th and 80th days of injection of medicinal products during experiment. In case of alcohol neuropathy, the tactile responsiveness test was performed on the 1st, 50th and 100th day of injection of medicinal products.
Assessment of tactile allodynia was performed in the same way as in the example 7.

[6] = system: pancreatic gland insular apparatus; assay: Pancreatic gland insular apparatus of diabetic rats (islet area morphometry); assay type: in vivo, rat; conditions: after 80-day injection; intact 0.066, control 0.012
Method: as §2, §3
1. pancreatic gland insular apparatus where measurement of islets area was performed;

With “14-glycine-exendin-4 (Heloderma suspectum)-(1-39)-peptidyl-octa-D-arginyl-glycine [D-peptide]” the “antihyperglycemic effect (glucose level in peripheral blood)” value [1] was “had antihyperglycemic effect during therapy with duration of 80 days starting from the 40th day of injection”, the “Glycosylated hemoglobin, %” value [2] was 5.5 ± 0.53 % and the “reduction of HbA1c concentration, therapy effect in intergroup comparison” value [2] was “maximum therapy effect”. The “effect on tactile allodynia manifestation in diabetic neuropathy” value [3] was “decreased tactile allodynia manifestations significantly”, the “mean value of paw withdrawal threshold, 60th day of products injection” value ([3]; M ± m) was 16.15 ± 4.18 g and the “mean value of paw withdrawal threshold, 70th day of products injection” value ([3]; M ± m) was 13.91 ± 3.59 g. For the same molecule, the “mean value of paw withdrawal threshold, 80th day of products injection” value ([3]; M ± m) was 15.05 ± 3.67 g, the “mesenteric artery intima thickness, effect” value [4] was “Maximum effect” and the “pathomorphological condition of sciatic nerve tissue” value (sciatic nerve tissue) was “had a positive therapeutic effect”. The “Nerve stem thickness, μm” value (sciatic nerve tissue) was 303.6 ± 20.3 μm, the “Endoneurium connective tissue area, μm^2” value (sciatic nerve tissue) was 1,956.1 ± 273.4** μm^2 and the “Cross section area of fibers, μm^2” value (gastrocnemius muscle) was 1,472 ± 282* μm^2. For the same molecule, the “pathomorphological condition of gastrocnemius muscle tissue” value (gastrocnemius muscle) was “had apparent therapeutic action on muscle tissue” and the “effect on tactile allodynia in alcohol neuropathy” value [5] was “decrease in tactile allodynia intensity”.

`CN(C)C(=N)N=C(N)N` [Metformin] was tested, and the “antihyperglycemic effect (glucose level in peripheral blood)” value [1] was “showed antihyperglycemic properties starting from the 20th day of therapy”, the “Glycosylated hemoglobin, %” value [2] was 5.7 ± 0.25 % and the “reduction of HbA1c concentration, therapy effect in intergroup comparison” value [2] was “maximum therapy effect”. The “effect on tactile allodynia manifestation in diabetic neuropathy” value [3] was “decreased allodynia manifestation intensity slightly”, the “mean value of paw withdrawal threshold, 60th day of products injection” value ([3]; M ± m) was 4.94 ± 0.90 g and the “mean value of paw withdrawal threshold, 70th day of products injection” value ([3]; M ± m) was 4.98 ± 0.87 g. For the same molecule, the “mean value of paw withdrawal threshold, 80th day of products injection” value ([3]; M ± m) was 4.28 ± 0.45 g, the “mean value of paw withdrawal threshold, Baseline” value ([3]; M ± m, baseline, prior to injection of test products) was 28.82 ± 0.00 g and the “pathomorphological condition of sciatic nerve tissue” value (sciatic nerve tissue) was “did not have a therapeutic effect on nerve tissue; also recorded: nerve stem edema and excess increase of its thickness”. The “Nerve stem thickness, μm” value (sciatic nerve tissue) was 382 ± 23.4 μm, the “Endoneurium connective tissue area, μm^2” value (sciatic nerve tissue) was 2,826.3 ± 298.9* μm^2 and the “Cross section area of fibers, μm^2” value (gastrocnemius muscle) was 1,286 ± 157* μm^2. For the same molecule, the “pathomorphological condition of gastrocnemius muscle tissue” value (gastrocnemius muscle) was “Minimum focal inflammatory infiltration of fibers and interstitial tissue” and the Area of pancreatic gland islets, mm² [6] was 0.034 ± 0.004 mm².
